Source: patent US10988449B2, “Isoxazole derivatives as nuclear receptor agonists and uses thereof” (IL DONG PHARMACEUTICAL CO., LTD., priority 2017, dated 2021)

Experiments:
[1] = biological target: T1, human FXR (Homo sapiens, UniProt Q96RI1); assay: FXR reporter assay (cellular FXR activities); format: cell-based; conditions: for EC50: FXR reporter cells, 24 hours incubation, luciferase, read-out: Reporter Cell EC50; for Emax: read-out: Emax (%) (GW4064 Emax = 100%)
T1 construct: expressed in transfected cells
T1 sequence (Q96RI1 1-486): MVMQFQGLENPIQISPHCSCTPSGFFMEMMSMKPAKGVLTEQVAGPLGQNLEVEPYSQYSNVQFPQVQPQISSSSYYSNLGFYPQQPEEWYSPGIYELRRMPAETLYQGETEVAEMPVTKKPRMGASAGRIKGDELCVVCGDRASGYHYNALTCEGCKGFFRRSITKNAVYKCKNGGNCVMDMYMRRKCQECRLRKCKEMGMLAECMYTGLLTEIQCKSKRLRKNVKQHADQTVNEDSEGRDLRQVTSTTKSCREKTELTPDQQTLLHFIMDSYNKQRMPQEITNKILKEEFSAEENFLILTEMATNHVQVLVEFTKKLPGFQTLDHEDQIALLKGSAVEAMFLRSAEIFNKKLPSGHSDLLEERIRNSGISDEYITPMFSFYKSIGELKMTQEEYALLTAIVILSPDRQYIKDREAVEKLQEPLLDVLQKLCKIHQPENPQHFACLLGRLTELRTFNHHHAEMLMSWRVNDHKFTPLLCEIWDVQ
In short: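 Reporter cells overexpressing human FXR exposed to compound dilutions for 24 h at 37 °C, 5% CO2. Luciferase signal used to calculate EC50.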

[2] = Mouse pharmacokinetics; format: in vivo; design: concentration or dose not given beside the values; conditions: mouse; Balb/c male mice; blood samples 15 to 1140 min; LC-MS/MS; read-out: AUC
Procedure: To evaluate the pharmacokinetics test, the invented 18 compounds of examples were determined as follows. Blood samples are collected at 15, 30, 60, 120, 240, 480, 1140 min. Quantification is by using a LC-MS/MS method specific to the selected compound. Pharmacokinetics parameters are calculated using WinNonLinnon compartmental analysis software.

Row | Structure (SMILES) | EC50 [1] [nM] | Emax [1] [%] | AUC [2] [ng·h/mL]
1 | O=C(O)c1cccc(C#Cc2ccc(OCc3c(-c4c(Cl)cccc4Cl)noc3C3CC3)cc2)c1 [Compound I-2, 3-((4-((5-cyclopropyl-3-(2,6-dichlorophenyl)isoxazol-4-yl)methoxy)phenyl)ethynyl)benzoic acid] | > 1000 | > 100 | 277
2 | O=C(O)c1cccc(C#Cc2ccc(OCc3c(-c4c(Cl)cccc4Cl)noc3C3CC3)cc2C(F)(F)F)c1 [Compound I-3, 3-((4-((5-cyclopropyl-3-(2,6-dichlorophenyl)isoxazol-4-yl)methoxy)-2-(trifluromethyl)phenyl)ethynyl)benzoic acid] | 200 to 1000 | > 100 | 760
3 | O=C(O)c1cccc(C#Cc2ccc(OCc3c(-c4c(Cl)cccc4Cl)noc3C3CC3)cc2Cl)c1 [Compound I-15, 3-((2-chloro-4-((5-cyclopropyl-3-(2,6-dichlorophenyl)isoxazol-4-yl)methoxy)phenyl)ethynyl)benzoic acid] | 60 to 200 | 82 | 521
4 | O=C(O)c1ccc(C#Cc2ccc(OCc3c(-c4c(Cl)cccc4Cl)noc3C3CC3)cc2Cl)cc1 [Compound I-16, 4-((2-chloro-4-((5-cyclopropyl-3-(2,6-dichlorophenyl)isoxazol-4-yl)methoxy)phenyl)ethynyl)benzoic acid] | 60 to 200 | 91 | 2250
5 | O=C(O)c1cncc(C#Cc2ccc(OCc3c(-c4c(Cl)cccc4Cl)noc3C3CC3)cc2Cl)c1 [Compound I-20, 5-((2-chloro-4-((5-cyclopropyl-3-(2,6-dichlorophenyl)isoxazol-4-yl)methoxy)phenyl)ethynyl)nicotinic acid] | 60 to 200 | 94 | 438
6 | CN(C)c1cc(C#Cc2ccc(OCc3c(-c4c(Cl)cccc4Cl)noc3C3CC3)cc2Cl)cc(C(=O)O)c1 [Compound I-21, 3-((2-chloro-4-((5-cyclopropyl-3-(2,6-dichlorophenyl)isoxazol-4-yl)methoxy)phenyl)ethynyl)-5-(dimethylamino)benzoic acid] | ≤ 20 | 92 | 6140
7 | Nc1cc(C#Cc2ccc(OCc3c(-c4c(Cl)cccc4Cl)noc3C3CC3)cc2Cl)cc(C(=O)O)c1 [Compound I-25, 3-amino-5-((2-chloro-4-((5-cyclopropyl-3-(2,6-dichlorophenyl)isoxazol-4-yl)methoxy)phenyl)ethynyl)benzoic acid] | 60 to 200 | 97 | 722
8 | CC(C)(O)Cn1ccc2c(C#Cc3ccc(OCc4c(-c5c(Cl)cccc5Cl)noc4C4CC4)cc3Cl)cc(C(=O)O)cc21 [Compound I-98, 4-((2-chloro-4-((5-cyclopropyl-3-(2,6-dichlorophenyl)isoxazol-4-yl)methoxy)phenyl)ethynyl)-1-(2-hydroxy-2-methylpropyl)-1H-indole-6-carboxylic acid] | 20 to 60 | > 100 | 
9 | O=C(O)c1cc(C#Cc2ccc(OCc3c(-c4c(Cl)cccc4Cl)noc3C3CC3)cc2Cl)cc2c1OCC2 [Compound I-100, 5-((2-chloro-4-((5-cyclopropyl-3-(2,6-dichlorophenyl)isoxazol-4-yl)methoxy)phenyl)ethynyl)-2,3-dihydrobenzofuran-7-carboxylic acid] | 60 to 200 | > 100 | 
10 | CCc1nc2cc(C#Cc3ccc(OCc4c(-c5c(Cl)cccc5Cl)noc4C4CC4)cc3Cl)cc(C(=O)O)c2o1 [Compound I-104, 5-((2-chloro-4-((5-cyclopropyl-3-(2,6-dichlorophenyl)isoxazol-4-yl)methoxy)phenyl)ethynyl)-2-ethylbenzo[d]oxazole-7-carboxylic acid] | ≤ 20 | 94 | 
11 | CCCc1nc2cc(C#Cc3ccc(OCc4c(-c5c(Cl)cccc5Cl)noc4C4CC4)cc3Cl)cc(C(=O)O)c2o1 [Compound I-105, 5-((2-chloro-4-((5-cyclopropyl-3-(2,6-dichlorophenyl)isoxazol-4-yl)methoxy)phenyl)ethynyl)-2-propylbenzo[d]oxazole-7-carboxylic acid] | ≤ 20 | > 100 | 
12 | O=C(O)c1cc(C#Cc2ccc(OCc3c(-c4c(Cl)cccc4Cl)noc3C3CC3)cc2Cl)cc2nccnc12 [Compound I-108, 7-((2-chloro-4-((5-cyclopropyl-3-(2,6-dichlorophenyl)isoxazol-4-yl)methoxy)phenyl)ethynyl)quinoxaline-5-carboxylic acid] | 20 to 60 | 98 | 
13 | Cc1nc2cc(C#Cc3ccc(OCc4c(-c5c(Cl)cccc5Cl)noc4C4CC4)cc3Cl)cc(C(=O)O)c2nc1C [Compound I-109, 7-((2-chloro-4-((5-cyclopropyl-3-(2,6-dichlorophenyl)isoxazol-4-yl)methoxy)phenyl)ethynyl)-2,3-dimethylquinoxaline-5-carboxylic acid] | 20 to 60 | 100 | 
14 | CCCCc1nc2cc(C#Cc3ccc(OCc4c(-c5c(Cl)cccc5Cl)noc4C4CC4)cc3Cl)cc(C(=O)O)c2o1 [Compound I-111, 2-butyl-5-((2-chloro-4-((5-cyclopropyl-3-(2,6-dichlorophenyl)isoxazol-4-yl)methoxy)phenyl)ethynyl)benzo[d]oxazole-7-carboxylic acid] | 20 to 60 | 98 | 
15 | CCc1nc2c(C(=O)O)cc(C#Cc3ccc(OCc4c(-c5c(Cl)cccc5Cl)noc4C4CC4)cc3Cl)cc2o1 [Compound I-113, 6-((2-chloro-4-((5-cyclopropyl-3-(2,6-dichlorophenyl)isoxazol-4-yl)methoxy)phenyl)ethynyl)-2-ethylbenzo[d]oxazole-4-carboxylic acid] | 20 to 60 | 96 | 
16 | CCCc1nc2c(C(=O)O)cc(C#Cc3ccc(OCc4c(-c5c(Cl)cccc5Cl)noc4C4CC4)cc3Cl)cc2o1 [Compound I-114, 6 ((2-chloro-((5-cyclopropyl-3-(2,6-dichlorophenyl)isoxazol-4-yl)methoxy)phenyl)ethynyl)-2-propylbenzo[d]oxazole-4-carboxylic acid] | 20 to 60 | > 100 | 

Continued, values first:

Row | EC50 [1] [nM] | Emax [1] [%] | AUC [2] [ng·h/mL] | Structure (SMILES)
17 | 60 to 200 | 91 | 1780 | O=C(O)c1ccc(Cl)c(C#Cc2ccc(OCc3c(-c4c(Cl)cccc4Cl)noc3C3CC3)cc2Cl)c1 [Compound I-28, 4-chloro-3-((2-chloro-4-((5-cyclopropyl-3-(2,6-dichlorophenyl)isoxazol-4-yl)methoxy)phenyl)ethynyl)benzoic acid]
18 | ≤ 20 | 94 |  | O=C(O)c1cc(C#Cc2ccc(OCc3c(-c4c(Cl)cccc4Cl)noc3C3CC3)cc2Cl)c2ccn(CCO)c2c1 [Compound I-97, 4-((2-chloro-4-((5-cyclopropyl-3-(2,6-dichlorophenyl)isoxazol-4-yl)methoxy)phenyl)ethynyl)-1-(2-hydroxyethyl)-1H-indole-6-carboxylic acid]
19 | ≤ 20 | 97 |  | O=C(O)c1cc(C#Cc2ccc(OCc3c(-c4c(Cl)cccc4Cl)noc3C3CC3)cc2Cl)cc2[nH]ccc12 [Compound I-101, 6-((2-chloro-4-((5-cyclopropyl-3-(2,6-dichlorophenyl)isoxazol-4-yl)methoxy)phenyl)ethynyl)-1H-indole-4-carboxylic acid]
20 | 200 to 1000 | > 100 |  | O=C(O)c1cc(C#Cc2ccc(OCc3c(-c4c(Cl)cccc4Cl)noc3C3CC3)cc2Cl)cc2ncoc12 [Compound I-102, 5-((2-chloro-4-((5-cyclopropyl-3-(2,6-dichlorophenyl)isoxazol-4-yl)methoxy)phenyl)ethynyl)benzo[d]oxazole-7-carboxylic acid]
21 | ≤ 20 | > 100 |  | Cc1nc2cc(C#Cc3ccc(OCc4c(-c5c(Cl)cccc5Cl)noc4C4CC4)cc3Cl)cc(C(=O)O)c2o1 [Compound I-103, 5-((2-chloro-4-((5-cyclopropyl-3-(2,6-dichlorophenyl)isoxazol-4-yl)methoxy)phenyl)ethynyl)-2-methylbenzo[d]oxazole-7-carboxylic acid]
22 | > 1000 | > 100 |  | O=C(O)c1cc(C#Cc2ccc(OCc3c(-c4c(Cl)cccc4Cl)noc3C3CC3)cc2Cl)cc2nc(CO)oc12 [Compound I-107, 5-((2-chloro-4-((5-cyclopropyl-3-(2,6-dichlorophenyl)isoxazol-4-yl)methoxy)phenyl)ethynyl)-2-(hydroxymethyl)benzo[d]oxazole-7-carboxylic acid]
23 | ≤ 20 | 92 |  | O=C(O)c1cc(C#Cc2ccc(OCc3c(-c4c(Cl)cccc4Cl)noc3C3CC3)cc2Cl)cc2nc(C3CC3)oc12 [Compound I-110, 5-((2-chloro-4-((5-cyclopropyl-3-(2,6-dichlorophenyl)isoxazol-4-yl)methoxy)phenyl)ethynyl)-2-cyclopropylbenzo[d]oxazole-7-carboxylic acid]
24 | 20 to 60 | 97 |  | CC(C)c1nc2c(C(=O)O)cc(C#Cc3ccc(OCc4c(-c5c(Cl)cccc5Cl)noc4C4CC4)cc3Cl)cc2o1 [Compound I-115, 6-((2-chloro-4-((5-cyclopropyl-3-(2,6-dichlorophenyl)isoxazol-4-yl)methoxy)phenyl)ethynyl)-2-isopropylbenzo[d]oxazole-4-carboxylic acid]
